One series deals with Luciferase gene (GL3). Nature of the series: siRNA introduction efficiency (suppression of luciferase activity). It counts as cell-based. As to conditions: MCF7-ADR-Luc, atelocollagen transfection array. As to the method: Luciferase gene (GL3) was stably transfected into multidrug-resistant MCF7-ADR cells of which the parental Cell line is MCF7 breast cancer cell. The cell line was expressing luciferase and designated as MCF7-ADR-Luc.
The MCF7-ADR-LUC cell obtained in (2) was inoculated into the array prepared in (1) in 4×10^3 cell number/well, and cultured for 3 days in the presence of 1 nM docetaxel (DOC). To the live cells were added luciferin, and from the luminescence value, cell growth inhibition rate and luciferase siRNA introduction efficiency were measured.
Moreover, siRNA introduction efficiency was evaluated with the suppression rate of the luciferase activity by introduction of luciferase siRNA (GL3siRNA: dsRNA including a sense chain of Sequence No. 7 and an antisense chain of Sequence No. 8), separately from siRNA corresponding to each gene. In addition, luciferin (0.5 mM final concentration: Promega KK) was added to the medium, and the luciferase activity was measured immediately by a luminescence plate reader (ARVO: PerkinElmer, Inc.). Introduction of GL3 siRNA suppressed the luciferase activity by 80% in comparison with the control siRNA.

Another series concerns PC-9/CDDP cell. Briefly: Caspase activity in cisplatin-resistant lung cancer cells. In kind it is cell-based, human. The following applies: 3 days. The protocol:
(§1) A reagent for measurement of apoptosis was added to the plate after the measurement of the luciferase activity in Test Example 1, and the Caspase activity was measured. […] The Caspase activation rate was calculated with the control siRNA as 0%.
To suppress RPN2 gene expression RPN2 siRNA was transduced into PC-9/CDDP cell which is a cell line of human lung cancer ([…], differentiated gland cancer), and resistant to cisplatin (Cis) that is a anti-cancer drug. Then, the cell was cultured for 3 days in the presence of or in the absence of cisplatin (0.3 μM). Then, Caspase activity was measured in the same way as described in Test Example 2. In addition, for comparison, the same test was conducted also for the system to which control siRNA not suppressing any gene expression was introduced.

In series [1] the test system is MCF7-ADR-Luc cells. Briefly: Apoptosis induction test, Caspase-3/7 activity. It counts as cell-based. As to conditions: 3 days. The protocol: as §1
After 3 days, Caspase activity was measured in the same way as described in Test Example 2.

Series [2] relates to MCF7-ADR-Luc cells. Briefly: Apoptosis induction test, Hoechst staining. It counts as cell-based. As to conditions: vs control siRNA. As to the method:
Moreover, in addition to the Caspase activity, apoptosis induction was investigated with observation by Hoechst staining (the cells were washed with PBS (−), added with 4% PFA-0.1% Triton X-100-1 mg/ml Hoechst 33342/in PBS (−), and fixed and stained at room temperature for 20 minutes. The cells were washed with PBS (−), and then observed under fluorescence microscope.).

Series [3] concerns RPN2 gene. Nature of the series: RPN2 gene expression suppression test (real-time PCR). It counts as cell-based. The following applies: MCF7-ADR-Luc, 3 days, atelocollagen transfection array; remaining expression. As to the method: Into the atelocollagen cell transfection array prepared in Test Example 1 (1) were inoculated MCF7-ADR-Luc cells. After 3 days, cDNA was synthesized directly from the cell lysate, and real-time PCR was conducted, to investigate the RPN2 gene expression amount (SuperScript III Platinum CellsDirect Two-Step qRT-PCR: Invitrogen).
(In general: In qPCR the cycle at which signal appears reflects the starting amount.)

For series [4], the system named is MCF7-ADR-Luc cells. Nature of the series: Tumor growth test in a nude mouse. In kind it is in vivo. The following applies: 1 nmol siRNA/atelocollagen per tumor intratumoral + 20 mg/kg docetaxel i.p., 7 days after dosing, vs control siRNA. The protocol:
According to the protocol shown in FIG. 6, 1×10^7 MCF7-ADR-Luc cells suspended in 100 μl PBS (−) were transplanted into the mammary fat pad of the nude mouse (4 weeks old, scalpel). After 7 days when the tumor radius reached about 5 mm, siRNA and DOC were administered. Herein, atelocollagen in the final concentration of 5 mg/ml (w/vol) and siRNA in 1 nmol per tumor were mixed, and then 200 μl of atelocollagen (manufactured by KOKEN CO., LTD.)/siRNA was administered into the tumor. At the same time, 20 mg/kg of docetaxel was administered into the abdominal cavity. After 7 days, the tumor radius was measured to compare the tumor volumes.

Series [5] has as its system RPN2 gene. Nature of the series: RPN2 gene expression suppression test in a nude mouse (real-time RT-PCR of tumor). It counts as in vivo. The following applies: 1 nmol siRNA/atelocollagen per tumor + 20 mg/kg docetaxel, tumor collected after 1 day. As to the method: 1×10^7 MCF7-ADR-Luc cells suspended in 100 μl PBS (−) were transplanted into the mammary fat pad of the nude mouse (4 weeks old, scalpel). After 7 days, RPN2 siRNA and DOC were administered. Herein, atelocollagen in the final concentration of 5 mg/ml (w/vol) and RPN2 siRNA in 1 nmol per tumor were mixed, and then 200 μl of atelocollagen/siRNA was administered into the tumor. At the same time, 20 mg/kg of docetaxel was administered into the abdominal cavity. After 1 day, the tumor was collected and the total RNA was isolated, and RPN2 gene expression amount was measured with real-time RT-PCR (SYBR ExScript RT-PCR Kit: TaKaRa, LightCycler Real-Time PCR System: F. Hoffmann-La Roche Ltd.).
The RPN2 gene expression amount was measured in the same method as Test Example 5 except that RPN2 siRNA and DOC were administered at 6 weeks after MCF7-ADR-Luc cells were transplanted into the mammary fat pad of the nude mouse (4 weeks old, scalpel).

For series [6], the system named is MCF7-ADR-Luc cells. Briefly: Apoptosis induction test in a nude mouse (TUNEL staining). In kind it is in vivo. The following applies: dosed 6 weeks after transplant; siRNA/atelocollagen intratumoral + 20 mg/kg docetaxel; tumor collected after 4 days. The protocol: 1×10^7 MCF7-ADR-Luc cells suspended in 100 μl PBS (−) were transplanted into the mammary fat pad of the nude mouse (4 weeks old, scalpel). After 6 weeks, siRNA and DOC, or siRNA alone was administered. Atelocollagen in the final concentration of 5 mg/ml (w/vol) and siRNA in 1 nmol per tumor were mixed, and then 200 μl of atelocollagen/siRNA was administered into the tumor. At the same time, 20 mg/kg of docetaxel was administered into the abdominal cavity. After 4 days, the tumor was collected, and subjected to TUNEL staining (In Situ Cell Death Detection Kit: F. Hoffmann-La Roche Ltd.). The nucleus was subjected to counter staining with DAPI (4′,6-diamidino-2-phenylindole).

The test system of the next series is HepG2. Briefly: Cell survival in human liver cancer cells (CellTiter-Glo). It counts as cell-based. The protocol: HepG2, which is a cell line of human liver cancer, was inoculated into a 96 well plate in 5000/well. […] The control siRNA (dsRNA including a sense chain of Sequence No. 5 and an antisense chain of Sequence No. 6) was introduced as the negative control. At the same time with the siRNA, DOC was added in 1 nM of the final concentration. After the culture for 3 days, in order to determine the cell survival rate in each well, a quantification reagent for the live cells (CellTiter-Glo substrate: Promega KK) was added to each well, and the plate was stirred for 2 minutes, and left for 10 minutes. The luminescence was measured by a luminescence plate reader (ARVO: PerkinElmer).
For orientation: ATP-based viability assays read luminescence as a measure of living cells.

On to “GL3 siRNA: luciferase siRNA: dsRNA including a sense chain of Sequence No. 7 and an antisense chain of Sequence No. 8 (sense CUUACGCUGAGUACUUCGANN; antisense UCGAAGUACUCAGCGUAAGNN; chemistry not given here; listed as Homo sapiens)”, for which, in the series with Luciferase gene (GL3), the “suppression of luciferase activity in comparison with the control siRNA” value is 80%.

On to `N.N.[Cl][Pt][Cl]` [cisplatin, reference compound], for which the “Caspase activity, Cis+ versus Cis−” value with PC-9/CDDP cell (control siRNA system, cisplatin 0.3 μM) is recorded as “no difference”.

In the case of “RPN2 siRNA: dsRNA including a sense chain of Sequence No. 3 and an antisense chain of Sequence No. 4 (sense GGCCACUGUUAAACUAGAACA; antisense UUCUAGUUUAACAGUGGCCUG; listed as RNA, chemistry not given here; listed as Homo sapiens)”, the Caspase activity entry in the series with MCF7-ADR-Luc cells [1] (1 nM docetaxel, vs control siRNA) is reported as “induced strongly”. In addition, the “Caspase activity (apoptosis)” value in the series with MCF7-ADR-Luc cells [1] (in the absence of DOC) is “apoptosis is induced”; with PC-9/CDDP cell (cisplatin-treated (0.3 μM, Cis+)) it was “significant apoptosis was induced”. The “nucleus morphology by Hoechst staining (aggregation, fragmentation)” value in the series with MCF7-ADR-Luc cells [2] is listed as “apoptosis is induced”. In addition, the “RPN2 gene expression suppressed to” value in the series on RPN2 gene [3] is reported as “about 25%”. Also, the tumor volume result with MCF7-ADR-Luc cells [4] is “significant tumor shrinkage”. Further, the “RPN2 gene expression suppressed by, in comparison with control siRNA group” value is “about 40%” with RPN2 gene [5] (dosed 6 weeks after transplant) and “about 20%” in the series on RPN2 gene [5] (dosed 7 days after transplant). The “apoptosis cells in tumor (TUNEL staining)” value with MCF7-ADR-Luc cells [6] is given as “many apoptosis cells were found”. Moreover, in the series with PC-9/CDDP cell (cisplatin-untreated (Cis−)), the “Caspase activity (apoptosis increase)” value was “slight”. The “cancer cell growth suppression (luminescence intensity, RLU)” value is “showed cancer cell growth suppression effects alone” in the series on HepG2 (HepG2, siRNA alone, Lipofectamine 2000, 3 days) and “potentiating the cancer cell growth suppression effects of DOC” in the series on HepG2 (HepG2, siRNA with 1 nM DOC, 3 days).

Values taken from patent publication US8106024B2, “Method of treating cancer with an RPN2 gene expression inhibitor” (Taisho Pharmaceutical Co., Ltd., priority 2006, dated 2012).
